Entries after “also recorded” stand apart in the source; their conditions may differ. Read-outs that look alike come from different tables or passages of the source.
Key:
[1] = system: type 1 herpes simplex virus; conditions: cited from earlier work
virus = conditions: cited from earlier work
type 3 rhinovirus = conditions: cited from earlier work
[2] = system: P388 lymphocytic leukemia; assay type: in vivo, CD2 F1 female mice; conditions: for Percent Treated Animals/Control Animals / Treated Group Survival Time (mean): nine days; for Treated Group Survival Time (mean): control 10.2
Excerpt: Compound 2, 2-(2,3,5-tri-O-acetyl-β-D-ribofuranosyl)thiazole-4-carboxamide was screened in a manner similar to that shown in Example 5, however, the tumor system used as the test tumor was P388 lymphocytic leukemia. 10^6 seed cells were used to initiate the tumor in both the control group and the drug treated group of animals. The same strain of mice was used except female mice were substituted for males. Test results were based on mean survival time and are expressed as T/C percentages (treated animals/control animals) as per Example 5.
In the drug treated animals, treatment was initiated one day after tumor inoculation and the drug was given at the dose levels noted below in table 2. Drug treatment was for nine days and drug toxicity, as in Example 5, was measured on day six.
Average day of death for the control group was 10.2 days whereas at the lowest level of drug treatment the treated animals survived for more than 15 days. As with Example 5, 125% increase in longevity of treated animals over control animals was taken as indicative of positive drug response.

[3] = system: P388 lymphocytic leukemia; assay: P388 lymphocytic leukemia in vivo, median survival, 30-day test (Examples 7 and 8); design: species or system CD2 F1 female mice; conditions: for Percent Treated Animals/Control Animals / Treated Group Survival Time (median): Ex. 7a/8, saline with tween/80; for Treated Group Survival Time (median): control 12.6
Experimental: For examples 7 and 8, CD2 F1 female mice were used and challenged with P388 lymphocytic leukemia tumors. […] The test period was for thirty days in both Examples 7 and 8.
For Examples 7 and 8, as well as Examples 9 and 10 below, any animal of the drug treated group which survived beyond the end of the testing period was then evaluated and placed in one of three groups. The first group was designated as cured, meaning the animal was successfully cured of the tumor. The second group designation was no-takes, meaning survival of the animal was considered to be due to failure of tumor implant. The remaining group was designated as tumor survivors meaning the animals lived beyond the test cut-off date but could not be classified as either cured or no-takes.
For both Examples 7 and 8, thirty animals were used as the control group and six animals each were used at each dose level indicated in tables 3 and 4 below in the drug treated groups. In both Examples 7 and 8, for both the control group and the drug treated groups, tumors were induced by IP inoculation of tumor seed cells on day zero followed by initiation of drug treatment on day one. For both Examples 7a and 8, saline with tween/80 was used as the drug vehicle. For Examples 7b and 7c, water was used as the drug vehicle.
In both the control group and the drug treated group in Examples 7 and 8, the test animals were inoculated on day zero IP with 10^6 seed cells of P388 lymphocytic leukemia. In both Examples 7 and 8, treatment of the drug group was started on day one and the drug was given IP once daily for nine days. Day six was utilized as the cut-off data for death attributable to toxicity of the drug. […] Efficacy of treatment was determined by comparing median survival time of the drug treated animals compared to median survival time of the control animals, and is expressed as percentage increase of treated animals/control animals (T/C) as per Example 5.
In this example drug treated animals were injected IP with the dose level noted in Table 3 below. Six animals were treated at each dose level. No control animals survived beyond day 18 with a median death date of day 12.6.
This examples was performed as per Example 7a at dose levels as noted in table 3b below. A survivor at both the 700 and 800 mg/Kg level was judged as cured. No controls survived beyond day 12 and the mean death day of the control group was day 11.
This example was run as per Example 7a above at dose levels noted in Table 3c below. All controls were dead by day 14 with a mean death day of day 11.9. At the 500 mg/Kg level, one animal was judged as a cure.
Compound 2, 2-(2,3,5-tri-O-acetyl-β-D-ribofuranosyl)thiazole-4-carboxamide was tested as per Example 7a above at dose levels noted in Table 4 below. No controls survived beyond day 18 with an average death date of day 12.6.

malignant tumors [4] = assay: antitumor activity in vivo (general statements); conditions: summary statements
[5] = system: type 3 parainfluenza virus; conditions: cited from earlier work
L-1210 lymphoid leukemia = L-1210 lymphoid leukemia in vivo, mean survival (Example 11); design: species or system CD2 F1 male mice; conditions: for Percent Treated Animals Control Animals / Treated Group Survival Time (mean): saline
Excerpt: For Example 9a and 9b, CD2 F1 male mice were used and challenged with L-1210 lymphoid leukemia. […] The test period was for thirty days. Test results are expressed as T/C as per Example 5.
In both the control groups and the drug treated groups in Examples 9a and 9b, the test animals were inoculated on day zero IP with 10^6 seed cells of L-1210 lymphoid leukemia. For Example 9a, drug treatment was started on day one and compound 1 given once daily for nine days. Day five was utilized as the cutoff date for death attributable to toxicity of the drug. […] Efficacy of treatment was determined by comparing mean survival time of drug treated animals with mean survival time of the control animals and is expressed as percentage increase of treated animals/control animals (T/C) as per Example 5.
The compound test dosage levels are as noted in tables 7a and 7b below for Example 11a and 11b respectively. In these examples, thirty-six control animals were used and six test animals each at the drug dose levels as is shown in tables 7a and 7b. Saline was used as the drug vehicle.
For both the control groups and the drug test groups, tumors were induced by IP inoculation of tumor seed cells on day zero followed by initiation of drug treatment on day one wherein compound 3 was given once daily for 5 days. Test results are expressed as T/C as per example 5.

malignant tumors [6] = conditions: known from literature; cited from earlier work
viruses = conditions: cited from earlier work

**Q.** Which results are given for `CC(=O)OC[C@H]1O[C@@H](c2nc(C(N)=O)cs2)[C@H](OC(C)=O)[C@@H]1OC(C)=O` [Compound 2, 2-(2,3,5-Tri-O-Acetyl-β-D-Ribofuranosyl)thiazole-4-Carboxamide]?
**A.** in vitro antiviral activity [1]: only moderate activity; number of deaths of test animals vs placebo control animals (virus; in vivo antiviral tests): equal to or exceeded the number of deaths of the placebo control animals; in vivo antiviral activity (virus; in vivo): negative; in vitro antiviral activity (type 3 rhinovirus): negative; Percent Treated Animals/Control Animals ([2]; 50 mg/Kg IP): 150%; Treated Group Survival Time (mean) ([2]; 50 mg/Kg IP): 15.3 days; Percent Treated Animals/Control Animals ([2]; 100 mg/Kg IP): 176%; Treated Group Survival Time (mean) ([2]; 100 mg/Kg IP): 18.0 days; Percent Treated Animals/Control Animals ([2]; 200 mg/Kg IP): 179%; Treated Group Survival Time (mean) ([2]; 200 mg/Kg IP): 18.3 days; survival of treated animals ([2]; lowest level of drug treatment, control 10.2 days): more than 15 days; Percent Treated Animals/Control Animals ([3]; 12.5 mg/Kg IP once daily x9): 110%; Treated Group Survival Time (median) ([3]; 12.5 mg/Kg IP once daily x9): 13.7 days; Percent Treated Animals/Control Animals ([3]; 25 mg/Kg IP once daily x9): 113%; Treated Group Survival Time (median) ([3]; 25 mg/Kg IP once daily x9): 14.3 days; Percent Treated Animals/Control Animals ([3]; 50 mg/Kg IP once daily x9): 121%; Treated Group Survival Time (median) ([3]; 50 mg/Kg IP once daily x9): 15.3 days; Percent Treated Animals/Control Animals ([3]; 100 mg/Kg IP once daily x9): 145%; Treated Group Survival Time (median) ([3]; 100 mg/Kg IP once daily x9): 18.3 days; Percent Treated Animals/Control Animals ([3]; 200 mg/Kg IP once daily x9): 150%; Treated Group Survival Time (median) ([3]; 200 mg/Kg IP once daily x9): 19.0 days; Percent Treated Animals/Control Animals ([3]; 400 mg/Kg IP once daily x9): 161%; Treated Group Survival Time (median) ([3]; 400 mg/Kg IP once daily x9): 20.3 days; surviving animals judged as no-take ([3]; Ex. 7a/8, 50 mg/Kg, thirty days): one surviving animal was judged as a no-take; activity against P388 lymphocytic leukemia ([3]; Examples 7 and 8, multiple dose): active antitumor agents; also recorded: active against P388 lymphocytic leukemia; DN 2 (Decision Network) criteria of the National Cancer Institute ([3]; P388): successfully passed; antitumor activity (malignant tumors [4]): effective antitumor agent when injected intraperitoneally; in vitro antiviral activity [5]: negative

**Q.** Which “Percent Treated Animals Control Animals” value (L-1210 lymphoid leukemia; Ex. 11a, 50 mg/Kg once daily x5) does the source give for `NC(=O)c1csc([C@@H]2O[C@H](COP(=O)(O)O)[C@@H](O)[C@H]2O)n1` [Compound 3, 2-(5-O-Phosphoryl-β-D-Ribofuranosyl)thiazole-4 Carboxamide] here?
**A.** 136%

**Q.** What about the “Treated Group Survival Time (mean)” value (L-1210 lymphoid leukemia; Ex. 11a, 50 mg/Kg once daily x5, control 8.3) of the same compound?
**A.** 11.3 days

**Q.** And the “Percent Treated Animals Control Animals” value (L-1210 lymphoid leukemia; Ex. 11a, 100 mg/Kg once daily x5)?
**A.** 186%

**Q.** What about the “Treated Group Survival Time (mean)” value (L-1210 lymphoid leukemia; Ex. 11a, 100 mg/Kg once daily x5, control 8.3) of the same compound?
**A.** 15.5 days

**Q.** What about the “Percent Treated Animals Control Animals” value (L-1210 lymphoid leukemia; Ex. 11a, 200 mg/Kg once daily x5) of the same compound?
**A.** 259%

**Q.** And the “Treated Group Survival Time (mean)” value (L-1210 lymphoid leukemia; Ex. 11a, 200 mg/Kg once daily x5, control 8.3)?
**A.** 21.5 days

**Q.** And the “Percent Treated Animals Control Animals” value (L-1210 lymphoid leukemia; Ex. 11a, 400 mg/Kg once daily x5)?
**A.** 183%

**Q.** And the “Treated Group Survival Time (mean)” value (L-1210 lymphoid leukemia; Ex. 11a, 400 mg/Kg once daily x5, control 8.3)?
**A.** 15.2 days

**Q.** What about the “Percent Treated Animals Control Animals” value (L-1210 lymphoid leukemia; Ex. 11a, 800 mg/Kg once daily x5) of the same compound?
**A.** 196%

**Q.** What about the “Treated Group Survival Time (mean)” value (L-1210 lymphoid leukemia; Ex. 11a, 800 mg/Kg once daily x5, control 8.3) of the same compound?
**A.** 16.3 days

**Q.** And the “Percent Treated Animals Control Animals” value (L-1210 lymphoid leukemia; Ex. 11b, 50 mg/Kg once daily x5)?
**A.** 128%

**Q.** What about the “Treated Group Survival Time (mean)” value (L-1210 lymphoid leukemia; Ex. 11b, 50 mg/Kg once daily x5, control 10.1) of the same compound?
**A.** 13.0 days

**Q.** And the “Percent Treated Animals Control Animals” value (L-1210 lymphoid leukemia; Ex. 11b, 100 mg/Kg once daily x5)?
**A.** 121%

**Q.** And the “Treated Group Survival Time (mean)” value (L-1210 lymphoid leukemia; Ex. 11b, 100 mg/Kg once daily x5, control 10.1)?
**A.** 12.3 days

**Q.** And the “Percent Treated Animals Control Animals” value (L-1210 lymphoid leukemia; Ex. 11b, 200 mg/Kg once daily x5)?
**A.** 145%

**Q.** What about the “Treated Group Survival Time (mean)” value (L-1210 lymphoid leukemia; Ex. 11b, 200 mg/Kg once daily x5, control 10.1) of the same compound?
**A.** 14.7 days

**Q.** What about the “Percent Treated Animals Control Animals” value (L-1210 lymphoid leukemia; Ex. 11b, 400 mg/Kg once daily x5) of the same compound?
**A.** 155%

**Q.** And the “Treated Group Survival Time (mean)” value (L-1210 lymphoid leukemia; Ex. 11b, 400 mg/Kg once daily x5, control 10.1)?
**A.** 15.7 days

**Q.** And the “Percent Treated Animals Control Animals” value (L-1210 lymphoid leukemia; Ex. 11b, 600 mg/Kg once daily x5)?
**A.** 160%

**Q.** What about the “Treated Group Survival Time (mean)” value (L-1210 lymphoid leukemia; Ex. 11b, 600 mg/Kg once daily x5, control 10.1) of the same compound?
**A.** 16.2 days

**Q.** And the “activity against L-1210 lymphoid leukemia” value (L-1210 lymphoid leukemia; Examples 11a and 11b)?
**A.** active against L-1210 lymphoid leukemia

**Q.** And the drug toxicity (L-1210 lymphoid leukemia; Examples 11a and 11b, 50-800 mg/Kg)?
**A.** No drug toxicity was noted

**Q.** What about the antitumor activity (malignant tumors [4]) of the same compound?
**A.** effective in vivo antitumor agents

**Q.** With `NC(=O)c1ncn([C@@H]2O[C@H](COP(=O)(O)O)[C@@H](O)[C@H]2O)n1` [RIBAVIRIN 5' monophosphate] as the compound, how does the antitumor activity (malignant tumors [6]) read?
**A.** inactive as antitumor compounds

**Q.** For `NC(=O)c1ncn([C@@H]2O[C@H](CO)[C@@H](O)[C@H]2O)n1` [RIBAVIRIN, reference compound], which antitumor activity (malignant tumors [6]) is on record?
**A.** no significant antitumor activity

**Q.** What about the “in vitro antiviral activity” value (viruses) of the same compound?
**A.** active in vitro antiviral agent

— patent publication US4680285A, “Treatment of malignant tumors with 2-(β-D-ribofuranosylthiazole-4-carboxamide related compounds” (priority 1985, dated 1987)
